Measurements reported in US20240130994A1, “IONIC LIQUID FORMULATIONS FOR TREATING DIABETES” (i2O Therapeutics, Inc., priority 2020, published 2024).
“Also recorded” adds a separate entry of the source. Like-named read-outs stand apart in the source and are kept apart here. Each block holds one molecule with its values, some of them ahead of it.

What was measured:
[1] = Physical form of choline-based ionic liquids at room temperature; format: physicochemical
Experimental: Several ionic liquids comprising choline as a cation and various anions were synthesized. […] For anions not miscible with the aqueous choline bicarbonate solution, a co-solvent, such as ethanol, was added until a homogenous mixture formed. The mixture was stirred at room temperature until CO2 evolution ceased. Solvent was removed by rotary evaporation at 60° C. for 20 minutes, and each product was dried in a vacuum oven for 48 hours at 60° C.

[2] = male, Wistar, rat, in vivo
Experimental: (§1) Adult non-diabetic male Wistar rats were fasted overnight but given free access to water and subsequently dosed via intrajejunal injection with liraglutide and choline-hydrocinnamic acid. A fasting control group was dosed with a saline solution via intrajejunal injection. About 250 L of blood was collected at hourly intervals in order to determine the liraglutide serum concentration.
(§2) Adult non-diabetic male Wistar rats were fasted overnight but given free access to water and subsequently dosed via intrajejunal injection with liraglutide and one of various choline-based ionic liquids.

[3] = tested on: non-diabetic male Wistar rats; test: 30-day daily oral gavage safety study
Experimental: Adult non-diabetic male Wistar rats were dosed daily for 30 days via oral gavage with either 25 or 100 uL Choline-Cinnamic Acid 1:1.5. Two placebo groups received either 25 or 100 uL saline. Animals were observed daily for general health and weight recorded. On day 31, all animals were euthanized, and tissue, blood and plasma samples collected for analysis.

[4] = tested on: non-diabetic male Wistar rats; test: Blood glucose levels after intrajejunal injection in fasted non-diabetic rats; format: in vivo, rat; conditions: for effect on blood glucose levels: 100 μL
Experimental: About 250 μL of blood was collected at regular intervals in order to determine the blood glucose level. The obtained values, plotted as mean percent change±standard error in blood glucose levels with respect to initial reading (n=3) versus time, are shown in FIG. 7.
About 250 μL of blood was collected at regular intervals in order to determine the blood glucose level. The obtained values, plotted as mean percent change±standard error in blood glucose levels with respect to initial reading (n=3) versus time, are shown in FIG. 8.
The obtained values, plotted as mean percent change±standard error in blood glucose levels with respect to initial reading (n=4) versus time, are shown in FIG. 9.

[5] = Liraglutide serum concentration after intrajejunal injection of liraglutide with choline-based ionic liquid; conditions: for Peak 5-Hour Liraglutide Concentration: non-diabetic rats
Experimental: as §1, §2

[6] = in the presence of well-known permeation enhancers; cited from earlier work
[7] = tested on: Streptozocin-induced diabetic male Wistar rats; test: Blood glucose levels after oral liquid gavage in rat model of Type 1 diabetes; format: in vivo; conditions: Type 1 diabetes model rats
Experimental: About 250 μL of blood was collected at regular intervals in order to determine the blood glucose level. The obtained values, plotted as mean percent change±standard error in blood glucose levels with respect to initial reading (n=4) versus time, are shown in FIG. 11.

[8] = tested on: non-diabetic male Wistar rats; test: Blood glucose levels after subcutaneous injection or liquid gavage in fasted non-diabetic rats; format: in vivo, rat
Experimental: A fasting control group was dosed orally with a saline solution. About 250 μL of blood was collected at regular intervals in order to determine the blood glucose level. The obtained values, plotted as mean percent change±standard error in blood glucose levels with respect to initial reading (n=4) versus time, are shown in FIG. 10. […] About 250 μL of blood was collected at regular intervals in order to determine the blood glucose level. The obtained values, plotted as mean percent change±standard error in blood glucose levels with respect to initial reading (n=4) versus time, are shown in FIG. 11.

[9] = tested on: Streptozotocin-induced diabetic male Wistar rats; test: Plasma insulin after administration in rat model of Type 1 diabetes; format: in vivo; conditions: subcutaneous injection, oral liquid gavage or jejunum catheter
Experimental: A fasting control group was not treated. About 250 μL of blood was collected at regular intervals in order to determine the insulin serum concentration.

[10] = tested on: non-diabetic male Wistar rats; test: Glucose excretion in urine after intrajejunal injection; format: in vivo, rat; conditions: intrajejunal injection at varying doses, urine from bladder 1.5 hours post-injection
Experimental: At 1.5 hours post-injection, urine was sampled from the bladder to determine glucose concentration. The obtained glucose concentration values, plotted as percent change in blood glucose levels with respect to initial reading versus dose level and change in glucose concentration in the urine collected from the bladder versus dose level (n=1), are shown in FIG. 13.

[11] = cation:anion 1:1, room temperature
[12] = cation:anion 1:2, room temperature

Physical Form (Ratios Listed as Cation:Anion) [1, 11]: Solid
Physical Form (Ratios Listed as Cation:Anion) [1, 12]: Liquid
Peak 5-Hour Liraglutide Concentration [2]: 44 ng/mL
fold improvement of liraglutide concentration over choline-citronellic acid [2]: about 10 fold
Molecule: CCCCC/C=C\C/C=C\CCCCCCCC(=O)O [Linoleic Acid]

Molecule: O=C(O)C=Cc1ccccc1 [Cinnamic Acid]
plasma indicators of organ toxicity vs placebo ([3]; 25 or 100 uL daily oral gavage for 30 days, rats): not statistically significantly different
IHC staining of tight junction proteins Claudin-1 and Occludin of GI tract tissues vs placebo ([3]; rat, in vivo, po): no difference
blood cell counts vs placebo ([3]; rat, in vivo, po): not statistically significantly different
histological examination (H&E) of organs and GI tract tissues vs saline placebo ([3]; rat, in vivo, po): no significant difference
Physical Form (Ratios Listed as Cation:Anion) [1, 11]: Liquid at 1:1, 1:1.5, 1:2
Physical Form (Ratios Listed as Cation:Anion) ([1]; cation:anion 1:1.5, room temperature): Liquid at 1:1, 1:1.5, 1:2
Physical Form (Ratios Listed as Cation:Anion) [1, 12]: Liquid at 1:1, 1:1.5, 1:2
appearance and physical form ([1]; room temperature, ratio as in label): viscous yellow liquids

Molecule: Choline-Octenoic acid
effect on blood glucose levels [4]: neither choline-octanoic acid nor choline-octenoic acid decreased blood glucose levels
Peak 5-Hour Liraglutide Concentration ([5]; liraglutide with the ionic liquid, intrajejunal injection): 201 ng/mL

Molecule: Hydrocinnamic Acid (3-Phenylpropionic Acid)
Physical Form (Ratios Listed as Cation:Anion) [1, 11]: Liquid at 1:1, 1:2
Physical Form (Ratios Listed as Cation:Anion) [1, 12]: Liquid at 1:1, 1:2
blood concentration of liraglutide relative to those reported in the literature ([5]; liraglutide with choline-hydrocinnamic acid vs Buckley et al.): approximately 4,400 fold
liraglutide serum concentration ([5]; liraglutide with choline-hydrocinnamic acid, intrajejunal injection, rats): surprisingly high serum concentration
Peak 5-Hour Liraglutide Concentration ([5]; liraglutide with the ionic liquid, intrajejunal injection, listed as Choline-Hydrocinnamic acid): 2086 ng/mL
Peak 5-Hour Liraglutide Concentration ([5]; liraglutide with the ionic liquid, intrajejunal injection, listed as choline-hydrocinnamic acid): greater than 2000 ng/mL
fold improvement of liraglutide concentration over choline-citronellic acid ([5]; liraglutide with the ionic liquid, intrajejunal injection, rats): 500 fold

Molecule: CCCCCCCCCCCCCCCC(=O)N[C@@H](CCC(=O)NCCCC[C@H](NC(=O)[C@H](C)NC(=O)[C@H](C)NC(=O)[C@H](CCC(N)=O)NC(=O)CNC(=O)[C@H](CCC(=O)O)NC(=O)[C@H](CC(C)C)NC(=O)[C@H](Cc1ccc(O)cc1)NC(=O)[C@H](CO)NC(=O)[C@H](CO)NC(=O)[C@@H](NC(=O)[C@H](CC(=O)O)NC(=O)[C@H](CO)NC(=O)[C@@H](NC(=O)[C@H](Cc1ccccc1)NC(=O)[C@@H](NC(=O)CNC(=O)[C@H](CCC(=O)O)NC(=O)[C@H](C)NC(=O)[C@@H](N)Cc1cnc[nH]1)[C@@H](C)O)[C@@H](C)O)C(C)C)C(=O)N[C@@H](CCC(=O)O)C(=O)N[C@@H](Cc1ccccc1)C(=O)N[C@H](C(=O)N[C@@H](C)C(=O)N[C@@H](Cc1c[nH]c2ccccc12)C(=O)N[C@@H](CC(C)C)C(=O)N[C@H](C(=O)N[C@@H](CCCNC(=N)N)C(=O)NCC(=O)N[C@@H](CCCNC(=N)N)C(=O)NCC(=O)O)C(C)C)[C@@H](C)CC)C(=O)O [liraglutide]
absorption of liraglutide [6]: only minute absorption

Physical Form (Ratios Listed as Cation:Anion) [1, 11]: Liquid at 2:1, 1:1, 1:2
Physical Form (Ratios Listed as Cation:Anion) [1, 12]: Liquid at 2:1, 1:1, 1:2
Physical Form (Ratios Listed as Cation:Anion) ([1]; cation:anion 2:1, room temperature): Liquid at 2:1, 1:1, 1:2
Molecule: CC(C)=CCCC(C)CC(=O)O (stereo not shown) [Citronellic Acid]
effect on blood glucose levels [7]: continued to drop
effect on blood glucose levels ([8]; oral liquid gavage, listed as choline-citronellic acid): reduced blood glucose levels; also recorded: dropped and recovered slowly with time
effect on blood glucose levels ([8]; subcutaneous injection): reduced blood glucose levels
insulin secretion (plasma insulin concentration) [9]: Stimulation of insulin secretion was observed
effect on blood glucose level ([4]; 10, 20, 50 and 100 μL): dropped in a dose-dependent manner
blood glucose levels, % of starting levels ([4]; 50 μL dose): about 50%
effect on blood glucose levels [4]: pronounced decrease in blood glucose levels
drop in blood glucose level from baseline ([4]; 100 μL dose): about 70%
glucose concentration in the urine [10]: increasing glucose concentration in the urine

Physical Form (Ratios Listed as Cation:Anion) [1, 11]: Liquid
Physical Form (Ratios Listed as Cation:Anion) [1, 12]: Solid
Molecule: CCCCCCCC(=O)O [Octanoic Acid]
effect on blood glucose levels [4]: neither choline-octanoic acid nor choline-octenoic acid decreased blood glucose levels
